Two compounds from paper doi:10.1101/2023.03.27.534333v1 (biorxiv, 2023) can be followed below.

One may read the IC50 as the concentration that gives 50% inhibition. What is called Kd is the equilibrium constant for the complex coming apart. High values mean a looser complex, low ones a tighter complex.

Assay [1] concerns the target T1, full-length METTL16 (Homo sapiens, UniProt Q86W50).
T1 sequence (Q86W50 1-562): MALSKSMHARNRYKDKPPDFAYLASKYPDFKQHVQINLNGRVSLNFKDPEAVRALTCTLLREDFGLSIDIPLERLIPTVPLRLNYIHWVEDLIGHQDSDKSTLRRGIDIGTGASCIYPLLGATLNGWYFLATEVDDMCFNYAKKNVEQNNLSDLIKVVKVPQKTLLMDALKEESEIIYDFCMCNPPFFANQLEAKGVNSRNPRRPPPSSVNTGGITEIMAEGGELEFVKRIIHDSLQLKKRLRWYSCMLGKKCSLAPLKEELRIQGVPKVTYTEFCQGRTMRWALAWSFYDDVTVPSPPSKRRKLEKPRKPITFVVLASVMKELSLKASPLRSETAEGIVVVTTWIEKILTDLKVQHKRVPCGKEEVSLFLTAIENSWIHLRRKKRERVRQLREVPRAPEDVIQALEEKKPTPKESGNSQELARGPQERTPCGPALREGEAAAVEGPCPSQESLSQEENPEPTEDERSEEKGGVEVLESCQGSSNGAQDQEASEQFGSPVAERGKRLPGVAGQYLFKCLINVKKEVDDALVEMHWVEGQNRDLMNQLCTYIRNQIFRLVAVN
In words: m6A antibody-based ELISA. Format: biochemical. Background: In an ELISA, binding on a coated surface is turned into a signal by an enzyme label.

Assay [2] addresses T2, METTL16 MTD (residues 1-291) (Homo sapiens, UniProt Q86W50).
T2 sequence (Q86W50 1-291): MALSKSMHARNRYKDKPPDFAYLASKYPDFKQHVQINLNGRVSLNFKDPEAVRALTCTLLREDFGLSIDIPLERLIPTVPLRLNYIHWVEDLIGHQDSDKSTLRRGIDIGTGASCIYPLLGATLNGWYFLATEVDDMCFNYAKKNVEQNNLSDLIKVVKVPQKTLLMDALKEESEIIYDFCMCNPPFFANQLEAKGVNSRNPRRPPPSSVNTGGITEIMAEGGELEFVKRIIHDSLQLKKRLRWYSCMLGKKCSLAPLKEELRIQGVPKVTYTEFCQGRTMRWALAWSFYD
In words: microscale thermophoresis, His-tag RED-tris-NTA labelled protein. Format: binding. In general terms: Microscale thermophoresis detects binding through changes in fluorescence in a small temperature gradient.

For the compound `C/C(=N\N=C(/N)S)c1ccccc1` [compound 1, [(E)-(1-phenylethylidene)amino]thiourea], the IC50 in assay [1] is 0.0258 ± 0.0172 µM. Besides, the Kd in assay [2] was found to be 3.31 ± 0.61 µM.
For `C/C(=N\NC(N)=S)c1ccc(F)cc1` [compound 2, [(E)-[1-(4-fluorophenyl)ethylidene]amino]thiourea] the same measures were 0.0609 ± 0.00275 µM and 2.84 ± 0.94 µM.
